# Source: article PMC9305971, “Development of [^18F]AmBF3 Tetrazine for Radiolabeling of Peptides: Preclinical Evaluation and PET Imaging of [^18F]AmBF3-PEG7-Tyr^3-Octreotide in an AR42J Pancreatic Carcinoma Model” (Bioconjugate Chemistry, 2022)
# What was measured:
# [1] = Hydrolytic stability in 0.01 M PBS / formulated solution (radio-HPLC); format: physicochemical; settings: t = 3 h, 0.01 M PBS, pH 7.4
# Procedure: (§1) Lipophilicity was determined with the shake-flask method as a distribution coefficient between 0.01 M PBS and octanol. Purified radiotracer [^18F]6 (10 μL, ∼200 kBq, 1.5 nmol), [^18F]14 (20 μL, ∼260 kBq, 125 pmol), or [^18F]15 (20 μL, 144 kBq, 67 pmol) in a polypropylene tube containing 1500–2000 μL of each in a 1:1 mixture (1-octanol, 0.02 M PBS, pH 7.4) was shaken mechanically (500 rpm, 10 min) and centrifuged (1000g, 5 min), and samples from each layer (400 μL, n = 4) were measured with a γ-counter. The log D7.4 was calculated as a distribution between the two layers at pH 7.4. [^18F]6 (10 MBq, 40 nmol) diluted with 0.01 M PBS at pH 7.4 (≤1% ethanol, 5300 μL) was incubated for 180 min. At selected time points (5, 30, 60, 90, 120, 150, and 180 min), a sample (100 μL) was injected to radio-HPLC. [^18F]14 and [^18F]15 (29 MBq, 10 nmol) diluted in 2000 μL of 0.01 M PBS (≤1% ethanol) were left to incubate. A sample of [^18F]14 (100 μL) after 9 hours and [^18F]15 at selected time points between 30 and 335 min were injected into HPLC (method A). [^18F]15 (0.6 MBq, 0.134 nmol, 200 μL) formulated in ≤5% EtOH-1 × PBS was added and incubated in 2000 μL of PBS-50% human plasma at 37 °C. A 100 μL sample (at 60, 120, 180, and 240 min, n = 2) was diluted with 200 μL of cold acetonitrile and centrifuged (10,000g, 5 min). After centrifugation, a 100 μL sample of the supernatant was injected for radio-HPLC analysis.
# [2] = PET/CT and ex vivo biodistribution of [18F]6 in healthy mice; parameters: species or system male SCID and female C57BL/6JRj mice; settings: i.v.; for bone uptake in tibia / gallbladder uptake: 270 min post injection
# Procedure: [^18F]6 in 10% ethanol–0.01 M PBS was administered intravenously to male Fox Chase SCID mice (CB.17 SCID) (11.0 ± 0.5 MBq, ∼11 nmol, ∼150 μL, n = 4) and healthy female C57BL/6JRj mice (11.3 ± 0.3 MBq, ∼11 nmol, ∼150 μL, n = 4) under 2% isoflurane anesthesia. The PET/CT image was acquired with Inveon PET/CT for 60 min followed by a 15 min static scan 4 h after injection of the tracer. The images of the dynamic scan were reconstructed to time frames 60 × 10, 10 × 60, 4 × 300, and 3 × 600 s. After the second PET imaging (t = 270 ± 1.9 min post injection, n = 4), the organs were harvested and the radioactivity in each tissue sample was measured with a γ-counter and reported as a percentage of injected dose per gram of tissue (% ID/g). [^18F]15 was formulated in 4% ethanol in 0.01 M PBS and administered intravenously (0.2 nmol, 0.80 ± 0.30 MBq; tracer: 150 μL; tracer + blocking dose: 200 μL) to AR42J tumor-bearing Rj:NMRI-Foxn1^nu/nu mice (n = 4) under 2% isoflurane anesthesia. PET/CT images were acquired with Molecubes PET (β-CUBE) coupled with a CT (X-CUBE) (MOLECUBES NV, Ghent, Belgium) with two mice being imaged at the same time under 2% isoflurane anesthesia. Images were reconstructed to time frames 30 × 10, 15 × 60, 4 × 300, and 5 × 600 s. Quantitative image analysis was done with Carimas software (v 2.10, Turku PET Centre, Turku, Finland). Spherical ROIs were hand-drawn based on anatomical CT data and PET signal for the desired organs. The results are presented as standardized uptake values (SUVs).
# [3] = Lipophilicity, shake-flask log D7.4 (1-octanol/PBS); format: physicochemical; settings: 1-octanol/PBS pH 7.4, n = 4
# Procedure: as §1, with “analysis. […]” for “analysis.”
# Lipophilicity. The lipophilicities were determined with the shake-flask method as a distribution profile between 0.01 M PBS and octanol at pH 7.4. The distribution of the radiolabeled compound between the octanol and the PBS layers was calculated according
smiles,measurement,setting,value
C[N+](C)(CCNC(=O)Cc1ccc(-c2nncnn2)cc1)C[B-](F)(F)[18F] [[^18F]6],"hydrolytic stability, intact",[1],≥ 99%
same,bone uptake in tibia,[2]; C57BL/6JRj female mice,0.4 ± 0.1 % ID/g
same,gallbladder uptake,[2]; C57BL/6JRj female mice,6.4 ± 2.5 % ID/g
same,bone uptake in tibia,[2]; SCID male mice,0.3 ± 0.1 % ID/g
same,gallbladder uptake,[2]; SCID male mice,3.5 ± 2.4 % ID/g
same,major elimination pathway,[2]; PET/CT and ex vivo biodistribution 270 min post injection,renal clearance
same,logD,[3],-0.13 ± 0.06
